Laboratory results reported in PubChem BioAssay (NCI).
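Tested at 5 concentrations; 48 h exposure; 96-well plates; endpoints linearly interpolated, else capped at highest concentration. The concentration for full growth arrest is given as TGI.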

Tests used:
Assay in all cases: inhibition of tumour cell growth, NCI panel, 48 h
786-0 renal = tested on: 786-0 renal
OVCAR-3 ovarian = tested on: OVCAR-3 ovarian
MCF7 breast = tested on: MCF7 breast
K-562 leukemia = tested on: K-562 leukemia
HCT-116 colon = tested on: HCT-116 colon
UACC-257 melanoma = tested on: UACC-257 melanoma
CAKI-1 renal = tested on: CAKI-1 renal
ACHN renal = tested on: ACHN renal
SN12C renal = tested on: SN12C renal
IGROV1 ovarian = tested on: IGROV1 ovarian
SW-620 colon = tested on: SW-620 colon
HOP-62 NSCLC = tested on: HOP-62 NSCLC
UACC-62 melanoma = tested on: UACC-62 melanoma
NCI-H23 lung = tested on: NCI-H23 lung
DU-145 prostate = tested on: DU-145 prostate
LOX IMVI melanoma = tested on: LOX IMVI melanoma
MOLT-4 leukemia = tested on: MOLT-4 leukemia
HCT-15 colon = tested on: HCT-15 colon
HS 578T breast = tested on: HS 578T breast
OVCAR-8 ovarian = tested on: OVCAR-8 ovarian
OVCAR-5 ovarian = tested on: OVCAR-5 ovarian
SK-MEL-28 melanoma = tested on: SK-MEL-28 melanoma
SF-295 CNS = tested on: SF-295 CNS
HOP-92 NSCLC = tested on: HOP-92 NSCLC
A549 NSCLC = tested on: A549 NSCLC
EKVX NSCLC = tested on: EKVX NSCLC
SF-539 CNS = tested on: SF-539 CNS
SR leukemia = tested on: SR leukemia
U251 CNS = tested on: U251 CNS
RXF 393 renal = tested on: RXF 393 renal
M14 melanoma = tested on: M14 melanoma
T-47D breast = tested on: T-47D breast
SK-MEL-2 melanoma = tested on: SK-MEL-2 melanoma
MDA-MB-435 = tested on: MDA-MB-435
UO-31 renal = tested on: UO-31 renal
OVCAR-4 ovarian = tested on: OVCAR-4 ovarian
COLO 205 colon = tested on: COLO 205 colon
SF-268 CNS = tested on: SF-268 CNS
NCI-H522 lung = tested on: NCI-H522 lung
BT-549 breast = tested on: BT-549 breast
PC-3 prostate = tested on: PC-3 prostate
NCI-H460 lung = tested on: NCI-H460 lung
MALME-3M melanoma = tested on: MALME-3M melanoma
SNB-19 CNS = tested on: SNB-19 CNS
SK-MEL-5 melanoma = tested on: SK-MEL-5 melanoma
MDA-N = tested on: MDA-N
SK-OV-3 ovarian = tested on: SK-OV-3 ovarian
NCI/ADR-RES ovarian = tested on: NCI/ADR-RES ovarian
HCC-2998 colon = tested on: HCC-2998 colon
MDA-MB-231 breast = tested on: MDA-MB-231 breast
CCRF-CEM leukemia = tested on: CCRF-CEM leukemia
SNB-75 CNS = tested on: SNB-75 CNS
TK-10 renal = tested on: TK-10 renal
KM12 colon = tested on: KM12 colon
HT29 colon = tested on: HT29 colon
A498 renal = tested on: A498 renal
NCI-H226 lung = tested on: NCI-H226 lung
RPMI-8226 leukemia = tested on: RPMI-8226 leukemia
HL-60(TB) leukemia = tested on: HL-60(TB) leukemia

## Cn1/c(=N\N=C(\CNCCO)[C@@H](O)[C@@H]2OC(c3ccccc3)OC[C@H]2O)sc2ccccc21 (stereo partly specified)
786-0 renal
  TGI: 34.3 µM
OVCAR-3 ovarian
  TGI: 32.7 µM
MCF7 breast
  TGI: 34.2 µM
K-562 leukemia
  TGI: 33.3 µM
HCT-116 colon
  TGI: 29.5 µM
UACC-257 melanoma
  TGI: 39 µM
CAKI-1 renal
  TGI: 38.6 µM
ACHN renal
  TGI: 44 µM
SN12C renal
  TGI: 35.2 µM
IGROV1 ovarian
  TGI: 35 µM
SW-620 colon
  TGI: 37.5 µM
HOP-62 NSCLC
  TGI: 34.7 µM
UACC-62 melanoma
  TGI: 31.2 µM
NCI-H23 lung
  TGI: 37.5 µM
DU-145 prostate
  TGI: 35.1 µM
LOX IMVI melanoma
  TGI: 31 µM
MOLT-4 leukemia
  TGI: 33.6 µM
HCT-15 colon
  TGI: 54.6 µM
HS 578T breast
  TGI: 31.1 µM
OVCAR-8 ovarian
  TGI: 37 µM
OVCAR-5 ovarian
  TGI: 40.3 µM
SK-MEL-28 melanoma
  TGI: 33.2 µM
SF-295 CNS
  TGI: 33.9 µM
HOP-92 NSCLC
  TGI: 32 µM
A549 NSCLC
  TGI: 31.1 µM
EKVX NSCLC
  TGI: 33.2 µM
SF-539 CNS
  TGI: 32.7 µM
SR leukemia
  TGI: 41 µM
U251 CNS
  TGI: 31.8 µM
RXF 393 renal
  TGI: 30.9 µM
M14 melanoma
  TGI: 26.5 µM
T-47D breast
  TGI: 47 µM
SK-MEL-2 melanoma
  TGI: 33.3 µM
MDA-MB-435
  TGI: 35 µM
UO-31 renal
  TGI: 30.1 µM
OVCAR-4 ovarian
  TGI: 52.8 µM
COLO 205 colon
  TGI: 30.9 µM
SF-268 CNS
  TGI: 30.5 µM
NCI-H522 lung
  TGI: 32.7 µM
BT-549 breast
  TGI: 37.2 µM
PC-3 prostate
  TGI: 35.5 µM
NCI-H460 lung
  TGI: 49 µM
MALME-3M melanoma
  TGI: 32.3 µM
SNB-19 CNS
  TGI: 26.3 µM
SK-MEL-5 melanoma
  TGI: 28.5 µM
MDA-N
  TGI: 32.5 µM
SK-OV-3 ovarian
  TGI: 37.7 µM
NCI/ADR-RES ovarian
  TGI: > 100 µM
HCC-2998 colon
  TGI: 32 µM
MDA-MB-231 breast
  TGI: 29.8 µM
CCRF-CEM leukemia
  TGI: 47.4 µM
SNB-75 CNS
  TGI: 32.3 µM
TK-10 renal
  TGI: 36.3 µM
KM12 colon
  TGI: 33.5 µM
HT29 colon
  TGI: 38.6 µM

## COCn1c(C)c(C)c2c(=O)oc(N(C)C)nc21
786-0 renal
  TGI: > 100 µM
A498 renal
  TGI: > 100 µM
MCF7 breast
  TGI: > 100 µM
K-562 leukemia
  TGI: > 100 µM
HCT-116 colon
  TGI: > 100 µM
UACC-257 melanoma
  TGI: > 100 µM
CAKI-1 renal
  TGI: > 100 µM
ACHN renal
  TGI: > 100 µM
SN12C renal
  TGI: > 100 µM
IGROV1 ovarian
  TGI: > 100 µM
SW-620 colon
  TGI: > 100 µM
HOP-62 NSCLC
  TGI: > 100 µM
UACC-62 melanoma
  TGI: > 100 µM
NCI-H23 lung
  TGI: > 100 µM
DU-145 prostate
  TGI: > 100 µM
LOX IMVI melanoma
  TGI: > 100 µM
MOLT-4 leukemia
  TGI: > 100 µM
HCT-15 colon
  TGI: > 100 µM
HS 578T breast
  TGI: > 100 µM
OVCAR-8 ovarian
  TGI: > 100 µM
OVCAR-5 ovarian
  TGI: > 100 µM
SK-MEL-28 melanoma
  TGI: > 100 µM
SF-295 CNS
  TGI: > 100 µM
NCI-H226 lung
  TGI: > 100 µM
HOP-92 NSCLC
  TGI: > 100 µM
A549 NSCLC
  TGI: > 100 µM
EKVX NSCLC
  TGI: > 100 µM
SF-539 CNS
  TGI: > 100 µM
SR leukemia
  TGI: > 100 µM
U251 CNS
  TGI: > 100 µM
RXF 393 renal
  TGI: > 100 µM
M14 melanoma
  TGI: > 100 µM
T-47D breast
  TGI: > 100 µM
RPMI-8226 leukemia
  TGI: > 100 µM
SK-MEL-2 melanoma
  TGI: > 100 µM
MDA-MB-435
  TGI: > 100 µM
UO-31 renal
  TGI: > 100 µM
OVCAR-4 ovarian
  TGI: > 100 µM
COLO 205 colon
  TGI: > 100 µM
HL-60(TB) leukemia
  TGI: > 100 µM
NCI-H522 lung
  TGI: > 100 µM
BT-549 breast
  TGI: > 100 µM
PC-3 prostate
  TGI: > 100 µM
NCI-H460 lung
  TGI: > 100 µM
MALME-3M melanoma
  TGI: > 100 µM
SNB-19 CNS
  TGI: > 100 µM
SK-MEL-5 melanoma
  TGI: > 100 µM
MDA-N
  TGI: > 100 µM
SK-OV-3 ovarian
  TGI: > 100 µM
NCI/ADR-RES ovarian
  TGI: > 100 µM
HCC-2998 colon
  TGI: > 100 µM
MDA-MB-231 breast
  TGI: > 100 µM
CCRF-CEM leukemia
  TGI: > 100 µM
SNB-75 CNS
  TGI: > 100 µM
TK-10 renal
  TGI: > 100 µM
KM12 colon
  TGI: > 100 µM
HT29 colon
  TGI: > 100 µM

## O=c1c2ccccc2c2ccccc2c(=O)n1Cc1ccc2c(c1)OCO2
786-0 renal
  TGI: > 100 µM
OVCAR-3 ovarian
  TGI: > 100 µM
A498 renal
  TGI: > 100 µM
MCF7 breast
  TGI: > 100 µM
K-562 leukemia
  TGI: > 28 µM
HCT-116 colon
  TGI: > 100 µM
UACC-257 melanoma
  TGI: > 100 µM
CAKI-1 renal
  TGI: > 100 µM
ACHN renal
  TGI: > 100 µM
SN12C renal
  TGI: > 100 µM
IGROV1 ovarian
  TGI: > 100 µM
SW-620 colon
  TGI: > 100 µM
HOP-62 NSCLC
  TGI: > 100 µM
UACC-62 melanoma
  TGI: > 100 µM
NCI-H23 lung
  TGI: > 71.8 µM
DU-145 prostate
  TGI: > 100 µM
LOX IMVI melanoma
  TGI: > 100 µM
MOLT-4 leukemia
  TGI: > 50.6 µM
HCT-15 colon
  TGI: > 100 µM
HS 578T breast
  TGI: > 100 µM
OVCAR-8 ovarian
  TGI: > 100 µM
OVCAR-5 ovarian
  TGI: > 100 µM
SK-MEL-28 melanoma
  TGI: > 100 µM
SF-295 CNS
  TGI: > 100 µM
NCI-H226 lung
  TGI: > 100 µM
HOP-92 NSCLC
  TGI: > 100 µM
A549 NSCLC
  TGI: > 100 µM
EKVX NSCLC
  TGI: > 100 µM
SF-539 CNS
  TGI: > 94.5 µM
SR leukemia
  TGI: 84.5 µM
U251 CNS
  TGI: > 100 µM
RXF 393 renal
  TGI: > 84.2 µM
M14 melanoma
  TGI: > 100 µM
T-47D breast
  TGI: > 100 µM
RPMI-8226 leukemia
  TGI: > 67.4 µM
SK-MEL-2 melanoma
  TGI: > 80.2 µM
MDA-MB-435
  TGI: 55.7 µM
UO-31 renal
  TGI: > 100 µM
OVCAR-4 ovarian
  TGI: > 100 µM
COLO 205 colon
  TGI: > 100 µM
HL-60(TB) leukemia
  TGI: 52 µM
SF-268 CNS
  TGI: > 100 µM
NCI-H522 lung
  TGI: > 100 µM
BT-549 breast
  TGI: 88.7 µM
PC-3 prostate
  TGI: > 100 µM
NCI-H460 lung
  TGI: > 100 µM
MALME-3M melanoma
  TGI: > 100 µM
SNB-19 CNS
  TGI: > 100 µM
SK-MEL-5 melanoma
  TGI: > 100 µM
MDA-N
  TGI: 28.7 µM
SK-OV-3 ovarian
  TGI: > 100 µM
NCI/ADR-RES ovarian
  TGI: > 75.7 µM
HCC-2998 colon
  TGI: > 100 µM
MDA-MB-231 breast
  TGI: > 100 µM
CCRF-CEM leukemia
  TGI: 93.2 µM
SNB-75 CNS
  TGI: > 93.6 µM
TK-10 renal
  TGI: > 100 µM
KM12 colon
  TGI: > 100 µM
HT29 colon
  TGI: > 100 µM
